Measured values taken from patent US10010547B2 (CASCADIAN THERAPEUTICS, INC., priority 2014, dated 2018).
Counter-ions that a name gives are not always drawn. Like-named read-outs stand apart in the source and are kept apart here.

Experiments:
Chk-1 kinase = Chk-1 kinase (Homo sapiens (Human), UniProt O14757); assay: Chk-1 Kinase Inhibiting Activity (33P-ATP filter assay, CHKtide substrate); format: biochemical
Outline: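 Full-length N-terminal GST-tagged human Chk-1 from insect cells, 0.5 nM final, with 20 μM peptide substrate and 33P-ATP in HEPES pH 7.5 buffer with 1% DMSO. Reaction ran 120 minutes at room temperature; incorporated radioactivity captured on P81 filters and counted for IC50.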

MIA PaCa-2 cells = assay: Gemcitabine Combination Cell Assay (Cell Titer Glo); format: cell-based; details: for 10xLS: approximate concentration of Chk1 inhibitor that results in a 10-fold reduction in the IC50 of gemcitabine alone; for 2xLS: approximate concentration of Chk1 inhibitor that results in a two-fold reduction in the IC50 of gemcitabine alone
Outline: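 MIA PaCa-2 cells were treated 72 h with half-log dilutions of Chk1 inhibitor (top 3000 nM) and gemcitabine (top 100 nM), alone and in full matrix; viability by CellTiter-Glo luminescence. IC50s from four-parameter fit; Chk1 inhibitor concentrations giving two- and ten-fold lowering of gemcitabine IC50 were estimated.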

[1] = against Chk-1 kinase, read-out: IC50
[2] = Homo sapiens, Chk1 inhibitor alone, MIA PaCa-2 cells, 72 h, read-out: Chk1 IC50
[3] = Homo sapiens, MIA PaCa-2, 72 h, read-out: Chk1 IC50 (nM)

Chk-1 kinase, sequence (O14757 whole entry): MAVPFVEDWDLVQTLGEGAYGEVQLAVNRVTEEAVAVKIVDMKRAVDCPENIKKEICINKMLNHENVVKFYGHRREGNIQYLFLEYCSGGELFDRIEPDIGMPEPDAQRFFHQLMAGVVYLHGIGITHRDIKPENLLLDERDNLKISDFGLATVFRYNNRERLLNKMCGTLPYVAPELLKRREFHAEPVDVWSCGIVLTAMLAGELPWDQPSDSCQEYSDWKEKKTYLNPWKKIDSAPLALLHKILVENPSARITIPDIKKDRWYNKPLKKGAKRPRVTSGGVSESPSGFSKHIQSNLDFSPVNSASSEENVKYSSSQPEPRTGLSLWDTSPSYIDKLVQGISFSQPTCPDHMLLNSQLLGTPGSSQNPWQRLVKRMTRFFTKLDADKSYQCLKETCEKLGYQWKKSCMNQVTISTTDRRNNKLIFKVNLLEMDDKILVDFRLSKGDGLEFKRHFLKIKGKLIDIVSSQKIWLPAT

Structure (SMILES)	IC50 (Chk-1 kinase; [1])	IC50 (MIA PaCa-2 cells; [2])	10xLS (MIA PaCa-2 cells; MIA PaCa-2 cells, 72 h)	2xLS (MIA PaCa-2 cells; MIA PaCa-2 cells, 72 h)	IC50 (MIA PaCa-2 cells; [3])	IC50 (MIA PaCa-2 cells; Chk1 inhibitor alone, MIA PaCa-2 cells, 72 h, read-out: Chk1 IC50)	IC50 (Chk-1 kinase)
COc1cc(C2CCNCC2)ccc1-c1cc(Nc2ccc(C#N)nc2)n[nH]1 [Example 52, 5-[[5-[2-methoxy-4-(4-piperidyl)phenyl]-1H-pyrazol-3-yl]amino]pyridine-2-carbonitrile]	0.46 nM	953 nM	300 nM	30 nM	–	–	–
COc1cc(CN[C@H]2CCOC2)ccc1-c1cc(Nc2cnc(C#N)cn2)n[nH]1 [Example 132, 5-[[5-[2-methoxy-4-[[[(3S)-tetrahydrofuran-3-yl]amino]methyl]phenyl]-1H-pyrazol-3-yl]amino]pyrazine-2-carbonitrile]	0.11 nM	411 nM	<300 nM	3 nM	–	–	–
COc1cc(C2CCCN(C)C2)ccc1-c1cc(Nc2cnc(C#N)cn2)n[nH]1 (stereo not shown) [Example 40, 5-[[5-[2-methoxy-4-(1-methyl-3-piperidyl)phenyl]-1H-pyrazol-3-yl]amino]pyrazine-2-carbonitrile]	0.14 nM	188 nM	30 nM	<3 nM	–	–	–
COc1cc(CO[C@@H]2CCN(C(C)C)C2)ccc1-c1cc(Nc2cnc(C#N)cn2)n[nH]1 [Example 141, 5-[[5-[4-[[(3R)-1-isopropylpyrrolidin-3-yl]oxymethyl]-2-methoxy-phenyl]-1H-pyrazol-3-yl]amino]pyrazine-2-carbonitrile]	0.019 nM	970 nM	<300 nM	<10 nM	–	–	–
COc1cc(OC2CCN(C)CC2)ccc1-c1cc(Nc2cnc(C#N)cn2)n[nH]1 [Example 28, 5-[[5-[2-methoxy-4-[(1-methyl-4-piperidyl)oxy]phenyl]-1H-pyrazol-3-yl]amino]pyrazine-2-carbonitrile hydrochloride]	0.13 nM	–	<100 nM	<3 nM	279 nM	–	–
COc1cc(N2CCN(C(C)C)[C@H](C)C2)ccc1-c1cc(Nc2cnc(C#N)cn2)n[nH]1 [Example 133, 5-[[5-[4-[(3R)-4-isopropyl-3-methyl-piperazin-1-yl]-2-methoxy-phenyl]-1H-pyrazol-3-yl]amino]pyrazine-2-carbonitrile]	0.12 nM	139 nM	30 nM	<3 nM	–	–	–
CCN1CCN(c2ccc(-c3cc(Nc4cnc(C#N)cn4)n[nH]3)c(OC)c2)C[C@H]1C [Example 93, 5-[[5-[4-[(3R)-4-ethyl-3-methyl-piperazin-1-yl]-2-methoxy-phenyl]-1H-pyrazol-3-yl]amino]pyrazine-2-carbonitrile]	0.016 nM	99 nM	<30 nM	<3 nM	–	–	–
COc1cc(C2CCN(C)CC2)ccc1-c1cc(Nc2cnc(C)cn2)n[nH]1 [Example 26, N-[5-[2-methoxy-4-(1-methyl-4-piperidyl)phenyl]-1H-pyrazol-3-yl]-5-methyl-pyrazin-2-amine]	10 nM	5580 nM	>3000 nM	1000 nM	–	–	–
COc1cc(COC2CCN(C(C)C)CC2)ccc1-c1cc(Nc2cnc(C#N)cn2)n[nH]1 [Example 115, 5-[[5-[4-[(1-isopropyl-4-piperidyl)oxymethyl]-2-methoxy-phenyl]-1H-pyrazol-3-yl]amino]pyrazine-2-carbonitrile]	0.24 nM	–	<300 nM	3 nM	–	515 nM	–
COc1cc(OC[C@@H]2CCCN2C(C)C)ccc1-c1cc(Nc2cnc(C#N)cn2)n[nH]1 [Example 129, 5-[[5-[4-[[(2S)— 1-isopropylpyrrolidin-2-yl]methoxy]-2-methoxy-phenyl]-1H-pyrazol-3-yl]amino]pyrazine-2-carbonitrile]	0.046 nM	278 nM	<100 nM	<3 nM	–	–	–
CCN1CCC(Oc2ccc(-c3cc(Nc4cnc(C#N)cn4)n[nH]3)c(OC)c2)CC1 [Example 134, 5-[[5-[4-[(1-ethyl-4-piperidyl)oxy]-2-methoxy-phenyl]-1H-pyrazol-3-yl]amino]pyrazine-2-carbonitrile]	0.11 nM	352 nM	100 nM	3 nM	–	–	–
COc1cc(O[C@H]2CCN(C)C2)ccc1-c1cc(Nc2cnc(C#N)cn2)n[nH]1 [Example 42, 5-[[5-[2-methoxy-4-[(3S)-1-methylpyrrolidin-3-yl]oxy-phenyl]-1H-pyrazol-3-yl]amino]pyrazine-2-carbonitrile]	0.21 nM	73 nM	<30 nM	<3 nM	–	–	–
CCN1CCC(Cc2ccc(-c3cc(Nc4cnc(C#N)cn4)n[nH]3)c(OC)c2)CC1 [Example 143, 5-[[5-[4-[(1-Ethyl-4-piperidyl)methyl]-2-methoxy-phenyl]-1H-pyrazol-3-yl]amino]pyrazine-2-carbonitrile hydrochloride]	0.021 nM	–	<300 nM	<10 nM	820 nM	–	–
COc1cc(C2CCN(CCO)CC2)ccc1-c1cc(Nc2cnc(C#N)cn2)n[nH]1 [Example 99, 5-[[5-[4-[1-(2-hydroxyethyl)-4-piperidyl]-2-methoxy-phenyl]-1H-pyrazol-3-yl]amino]pyrazine-2-carbonitrile]	0.15 nM	233 nM	30 nM	<3 nM	–	–	–
COc1cc([C@H]2CCN(C)C[C@@H]2F)ccc1-c1cc(Nc2cnc(C#N)cn2)n[nH]1 [Example 96, 5-[[5-[4-[(3(R,S),4(R,S))-3-fluoro-1-methyl-4-piperidyl]-2-methoxy-phenyl]-1H-pyrazol-3-yl]amino]pyrazine-2-carbonitrile]	–	730 nM	<300 nM	10 nM	–	–	0.4 nM
COc1cc(OCC2CCCN2)ccc1-c1cc(Nc2cnc(C#N)cn2)n[nH]1 (stereo not shown) [Example 34, 5-[[5-[2-methoxy-4-(pyrrolidin-2-ylmethoxy)phenyl]-1H-pyrazol-3-yl]amino]pyrazine-2-carbonitrile]	0.14 nM	183 nM	100 nM	3 nM	–	–	–
COc1cc(N2CCNCC2)cc(F)c1-c1cc(Nc2cnc(C#N)cn2)n[nH]1 [Example 116, 5-[[5-(2-fluoro-6-methoxy-4-piperazin-1-yl-phenyl)-1H-pyrazol-3-yl]amino]pyrazine-2-carbonitrile]	0.077 nM	209 nM	100 nM	3 nM	–	–	–
CCN1CCC[C@@H]1COc1ccc(-c2cc(Nc3cnc(C#N)cn3)n[nH]2)c(OC)c1 [Example 126, 5-[[5-[4-[[(2R)-1-ethylpyrrolidin-2-yl]methoxy]-2-methoxy-phenyl]-1H-pyrazol-3-yl]amino]pyrazine-2-carbonitrile]	0.056 nM	210 nM	<100 nM	3 nM	–	–	–
CCNCc1ccc(-c2cc(Nc3cnc(C#N)cn3)n[nH]2)c(OC)c1 [Example 90, 5-[[5-[4-(ethylaminomethyl)-2-methoxy-phenyl]-1H-pyrazol-3-yl]amino]pyrazine-2-carbonitrile]	0.058 nM	390 nM	<300 nM	10 nM	–	–	–
COc1cc(OC[C@H]2CCCN2C)ccc1-c1cc(Nc2cnc(C#N)cn2)n[nH]1 [Example 103, 5-[[5-[2-methoxy-4-[[(2R)-1-methylpyrrolidin-2-yl]methoxy]phenyl]-1H-pyrazol-3-yl]amino]pyrazine-2-carbonitrile hydrochloride]	0.109 nM	–	300 nM	3 nM	184 nM	–	–
COc1cc(C2CCN(C(C)C)CC2F)ccc1-c1cc(Nc2cnc(C#N)cn2)n[nH]1 (stereo not shown) [Example 88, 5-[[5-[4-(3-fluoro-1-isopropyl-4-piperidyl)-2-methoxy-phenyl]-1H-pyrazol-3-yl]amino]pyrazine-2-carbonitrile]	0.079 nM	424 nM	300 nM	10 nM	–	–	–
COc1cc(C2CCN(C(=O)CN(C)C)CC2)ccc1-c1cc(Nc2cnc(C#N)cn2)n[nH]1 [Example 17, 5-[[5-[4-[1-[2-(Dimethylamino)acetyl]-4-piperidyl]-2-methoxy-phenyl]-1H-pyrazol-3-yl]amino]pyrazine-2-carbonitrile hydrochloride]	0.29 nM	–	300 nM	10 nM	1820 nM	–	–
CCN1CCC(CNc2ccc(-c3cc(Nc4cnc(C#N)cn4)n[nH]3)c(OC)c2)CC1 [Example 108, 5-[[5-[4-[(1-ethyl-4-piperidyl)methylamino]-2-methoxy-phenyl]-1H-pyrazol-3-yl]amino]pyrazine-2-carbonitrile]	0.043 nM	77 nM	30 nM	<3 nM	–	–	–
COc1cc(O[C@@H]2CCN(C)C2)ccc1-c1cc(Nc2cnc(C#N)cn2)n[nH]1 [Example 78, 5-[[5-[2-methoxy-4-[(3R)-1-methylpyrrolidin-3-yl]oxy-phenyl]-1H-pyrazol-3-yl]amino]pyrazine-2-carbonitrile]	0.69 nM	136 nM	100 nM	10 nM	–	–	–
COc1cc(OC[C@@H]2CCCN2C)ccc1-c1cc(Nc2cnc(C#N)cn2)n[nH]1 [Example 104, 5-[[5-[2-methoxy-4-[[(2S)-1-methylpyrrolidin-2-yl]methoxy]phenyl]-1H-pyrazol-3-yl]amino]pyrazine-2-carbonitrile hydrochloride]	0.12 nM	–	100 nM	3 nM	214 nM	–	–
